According to patent publication EP0306649A1, “3,5-Dihydroxycarboxylic acids and their derivatives, processes for their preparation, their use as medicaments, pharmaceutic preparations and intermediate products” (HOECHST AKTIENGESELLSCHAFT, priority 1987, dated 1989):
Like-named read-outs stand apart in the source and are kept apart here.

Assays:
[1] = human trial; cited from earlier work
[2] = rat; cited from earlier work
Cholesterin-Biosynthese = test: Inhibition of cholesterol biosynthesis in cell culture by 14C precursor incorporation into cholesterol; format: cell-based; details: HEP G2-Zellen monolayers in lipoprotein-free medium; 1 h preincubation, then 3 h with 14C-Natriumacetat; potency relative to Mevinolin tested in the same way
From the text: 2) Prüfung auf Cholesterin-Biosynthese-Hemmung in Zellkulturen durch ¹⁴-Präkursoreinbau in Cholesterin.
Monolayers von HEP G2-Zellen in lipoproteinfreiem Nährmedium wurden mit entsprechenden Konzentrationen der Prüfsubstanzen 1 Stunde vorinkubiert; nach Zugabe des ¹⁴C-markierten Präkursors ¹⁴C-Natriumacetat wurde die Inkubation für 3 Stunden fortgesetzt. Danach wurde ein Teil der Zellen alkalisch verseift bei vorheriger Zugabe eines internen Standards von ³H-Cholesterin. Die Lipide der verseiften Zellen wurden mit Chloroform-Methanol extrahiert. Dieses Lipidgemisch wurde nach Zusatz von Träger-Cholesterin präparativ dünnschichtchromatographisch getrennt, die Cholesterin-Bande nach dem Sichtbarmachen mit Jod-Dämpfen isoliert und die aus dem ¹⁴C-Präkursor gebildete Menge ¹⁴C-Cholesterins szintigraphisch bestimmt. In einem aliquoten Teil der Zellen wurde Zellprotein bestimmt, sodaß die in der Zeiteinheit/mg Zellprotein aus ¹⁴C-Präkursor gebildete Menge ¹⁴C-Cholesterins berechnet werden kann. Zum Vergleich für die Hemmwirkung eines zugesetzten Prüfpräparates diente die Lösungsmittelkontrolle, sodaß direkt die Hemmung der Cholesterin-Biosynthese bei einer bestimmten molaren Konzentration des Prüfpräparates im Medium angegeben werden kann. […]

In the case of `CC(O)(CC(=O)O)CC(=O)O` [3-Hydroxy-3-methyl-glutarsäure], the “cholesterinsenkende Wirkung” value [1] is given as “signifikante cholesterinsenkende Wirkung” and the “cholesterinsenkende Wirkung” value [2] is given as “signifikante cholesterinsenkende Wirkung”.
In the case of `CC(C)C(C=CC(O)CC(O)CC(=O)[O-])=C(c1ccc(F)cc1)c1ccc(F)cc1.[Na+]` (stereo not shown) [Beispiel 11a, 9,9-Di-(4-fluorphenyl)-3,5-dihydroxy-8-isopropyl-6,8-nonadiensäure Natriumsalz], the “relative Weinstärke zu Mevinolin” value (Cholesterin-Biosynthese) is reported as 100%.
With `CC(C)C(CCC(O)CC(O)CC(=O)[O-])=C(c1ccc(F)cc1)c1ccc(F)cc1.[Na+]` (stereo not shown) [Beispiel 11n, 3,5-Dihydroxy-9,9-di-(4-flurophenyl)-8-isopropyl-8-nonensäure-Natriumsalz] the “relative Weinstärke zu Mevinolin” value (Cholesterin-Biosynthese) was 30%.
